Measurements as given in US20240317708A1, “INHIBITORS OF TRANSGLUTAMINASES” (ZEDIRA GMBH, priority 2021, published 2024).

Tests used:
[1] = Log D shake flask method (octanol / PBS pH 7.4, HPLC); assay type: physicochemical; settings: octanol/phosphate-buffered saline (PBS); octanol / PBS pH 7.4, shake flask
Method: In order to classify the inventive compounds according to their lipophilicity, Log D values (distribution coefficient) were determined by means of the well-established shake flask method, measuring the partition of a compound between an octanol and phosphate-buffered saline (PBS, pH 7.4) by HPLC.

[2] = target: T1, recombinant human transglutaminase 2 (Homo sapiens, UniProt P21980); assay: Transglutaminase assay (dansylcadaverine incorporation into dimethylcasein, DCC-assay); assay type: biochemical; settings: recombinant human TG2 10 nM, dansylcadaverine/dimethylcasein, 37° C.
T1 construct: purchased Zedira T022
T1 sequence (P21980 1-687): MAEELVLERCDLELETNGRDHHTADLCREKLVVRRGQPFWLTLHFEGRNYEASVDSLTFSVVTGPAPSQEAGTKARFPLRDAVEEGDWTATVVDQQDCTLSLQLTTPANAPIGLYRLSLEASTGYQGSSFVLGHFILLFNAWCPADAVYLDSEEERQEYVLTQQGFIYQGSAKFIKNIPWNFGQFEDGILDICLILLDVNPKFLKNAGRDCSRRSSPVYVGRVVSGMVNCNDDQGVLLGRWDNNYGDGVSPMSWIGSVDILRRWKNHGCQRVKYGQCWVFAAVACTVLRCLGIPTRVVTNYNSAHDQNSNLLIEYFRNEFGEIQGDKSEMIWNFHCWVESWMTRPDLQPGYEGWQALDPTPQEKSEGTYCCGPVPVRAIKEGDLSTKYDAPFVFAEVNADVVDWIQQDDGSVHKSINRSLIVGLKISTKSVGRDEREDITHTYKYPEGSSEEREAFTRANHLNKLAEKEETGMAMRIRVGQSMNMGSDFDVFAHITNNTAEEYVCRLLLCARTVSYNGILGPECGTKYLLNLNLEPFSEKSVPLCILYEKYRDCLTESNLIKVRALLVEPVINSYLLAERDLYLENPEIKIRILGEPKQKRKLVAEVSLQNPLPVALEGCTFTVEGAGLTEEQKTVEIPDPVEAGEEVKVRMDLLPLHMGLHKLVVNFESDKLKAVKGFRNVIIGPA
Method: For the determination of potency of inhibitors against tissue transglutaminase, the incorporation of dansylcadaverine into dimethylcasein (Zedira product T036, Lorand et al., Anal Biochem, 1971, 44:221-31) was measured using recombinant human transglutaminase 2 (Zedira Product T022).
The tissue transglutaminase is diluted in buffer (50 mM Tris-HCl, 7.5 mM CaCl2, 150 mM NaCl, pH=7.4). The final concentration of TG2 in the assay is 10 nM.
A 10 mM inhibitor stock solution is prepared in DMSO, and from this a serial 1:2-fold dilution series is prepared also in DMSO. Each of the initial dilutions is subsequently diluted 1:50-fold with buffer (50 mM Tris-HCl, 7.5 mM CaCl2, 150 mM NaCl, pH=7.4) to yield the final working dilutions containing 2% (v/v) DMSO.
15 μl of inhibitor working dilution are added per well of a 96 well microtiter plate. As control, 15 μl of a 2% (v/v) DMSO solution prepared using the buffer mentioned above are added per well.
Immediately before starting the assay, 600 μl transglutaminase working solution are added to 11.4 ml assay buffer (50 mM Tris-HCl, 10 mM CaCl2, 10 mM glutathione, 2.5% glycerol, 16.7 μM dansylcadaverine, 4 μM N,N-dimethylcasein, 200 mM NaCl, pH=8.0). 285 μl of this reaction mix are added per well containing the inhibitor.
Increase in fluorescence is measured using λex=330 nm and λem=500 nm at 37° C. for 30 min. A slope of the increase in fluorescence between 20 and 30 min is calculated for determination of the IC50 value (inhibitor concentration at which 50% of the initial activity is blocked).
Analysis of enzymatic activity is performed by calculation of the slope of an increase in fluorescence intensity. IC50 values are calculated by plotting the enzymatic activity (as percentage from control containing 2% DMSO instead of inhibitor) against the inhibitor concentration. IC50 is defined as the inhibitor concentration blocking 50% of initial enzyme activity.

[3] = Caco-2 permeability assay (CacoReady kit); assay type: in vitro ADME; settings: human
Method: Permeability coefficients (Papp values) were obtained from Caco-2 barrier studies predicting oral/intestinal bioavailability of the tested compounds. The assays were performed by using CacoReady™ ready-to-use kits from ReadyCell according to the manufacturers protocol.

Structure (SMILES) | logD [1] | IC50 [2] [nM] | Papp [3] [×10⁻⁶ cm/s]
COC(=O)/C=C/CC[C@H](NC(=O)c1oc2ccccc2c1C)C(=O)Nc1cccn(CC(=O)NC2C3CCC2CC3)c1=O (stereo partly drawn) [III-65, (S,E)-methyl 7-(1-(2-(bicyclo[2.2.1]heptan-7-ylamino)-2-oxoethyl)-2-oxo-1,2-dihydropyridin-3-ylamino)-6-(3-methylbenzofuran-2-carboxamido)-7-oxohept-2-enoate] | 3 to 5 | < 25 | 1 to 10
COC(=O)/C=C/CC[C@H](NC(=O)c1snnc1C)C(=O)Nc1cccn(CC(=O)N[C@H]2C[C@H]3CC[C@]2(C)C3(C)C)c1=O [III-120, (S,E)-methyl 6-(4-methyl-1,2,3-thiadiazole-5-carboxamido)-7-oxo-7-(2-oxo-1-(2-oxo-2-((1R,2S,4R)-1,7,7-trimethylbicyclo[2.2.1]heptan-2-ylamino)ethyl)-1,2-dihydropyridin-3-ylamino)hept-2-enoate] | 1 to 3 | < 25 | < 1
COC(=O)/C=C/CC[C@H](NC(=O)[C@H]1CCNC1)C(=O)Nc1cccn(CC(=O)NC2C3CC4CC(C3)CC2C4)c1=O (stereo partly drawn) [III-26, (S,E)-methyl 7-(1-(2-(2-adamantylamino)-2-oxoethyl)-2-oxo-1,2-dihydropyridin-3-ylamino)-7-oxo-6-((S)-pyrrolidine-3-carboxamido)hept-2-enoate] | 1 to 3 | 25 to 250 | 1 to 10
COC(=O)/C=C/CC[C@H](NC(=O)c1[nH]c2ccccc2c1C)C(=O)Nc1cccn(CC(=O)NC2C3CC4CC(C3)CC2C4)c1=O (stereo partly drawn) [III-10, (S,E)-methyl 7-(1-(2-(2-adamantylamino)-2-oxoethyl)-2-oxo-1,2-dihydropyridin-3-ylamino)-6-(3-methyl-1H-indole-2-carboxamido)-7-oxohept-2-enoate] | 3 to 5 | < 25 | 1 to 10
Cc1c(C(=O)N[C@@H](CC/C=C/S(C)(=O)=O)C(=O)Nc2cccn(CC(=O)NC3C4CC5CC(C4)CC3C5)c2=O)oc2ccccc12 (stereo partly drawn) [III-90, (S,E)-N-(1-(1-(2-(2-adamantylamino)-2-oxoethyl)-2-oxo-1,2-dihydropyridin-3-ylamino)-6-(methylsulfonyl)-1-oxohex-5-en-2-yl)-3-methylbenzofuran-2-carboxamide] | 1 to 3 | < 25 | 1 to 10

Next, values leading:

logD [1] | IC50 [2] [nM] | Papp [3] [×10⁻⁶ cm/s] | Structure (SMILES)
3 to 5 | < 25 | 1 to 10 | COC(=O)/C=C/CC[C@H](NC(=O)c1oc2ccccc2c1Cl)C(=O)Nc1cccn(CC(=O)NC2C3CC4CC(C3)CC2C4)c1=O (stereo partly drawn) [III-3, (S,E)-methyl 6-(3-chlorobenzofuran-2-carboxamido)-7-(1-(2-(2-adamantylamino)-2-oxoethyl)-2-oxo-1,2-dihydropyridin-3-ylamino)-7-oxohept-2-enoate]
3 to 5 | < 25 | 1 to 10 | COC(=O)/C=C/CC[C@H](NC(=O)c1cc(Cl)sc1Cl)C(=O)Nc1cccn(CC(=O)NC23CC4(C)CC(C)(CC(C)(C4)C2)C3)c1=O [III-94, (S,E)-methyl 6-(2,5-dichlorothiophene-3-carboxamido)-7-(1-(2-(3,5,7-trimethyl-1-adamantylamino)-2-oxoethyl)-2-oxo-1,2-dihydropyridin-3-ylamino)-7-oxohept-2-enoate]
3 to 5 | 25 to 250 | < 1 | COC(=O)/C=C/CC[C@H](NC(=O)[C@@H]1CCCCN1)C(=O)Nc1cccn(CC(=O)NC2C3CC4CC(C3)CC2C4)c1=O (stereo partly drawn) [III-29, (S,E)-methyl 7-(1-(2-(2-adamantylamino)-2-oxoethyl)-2-oxo-1,2-dihydropyridin-3-ylamino)-7-oxo-6-((S)-piperidine-2-carboxamido)hept-2-enoate]
< 1 | 250 to 1500 | < 1 | COC(=O)/C=C/CC[C@H](NC(=O)c1nonc1N)C(=O)Nc1cccn(CC(=O)NC23CC(C2)C3)c1=O [III-160, (S,E)-methyl 6-(4-amino-1,2,5-oxadiazole-3-carboxamido)-7-(1-(2-(bicyclo[1.1.1]pentan-1-ylamino)-2-oxoethyl)-2-oxo-1,2-dihydropyridin-3-ylamino)-7-oxohept-2-enoate]
